Source: ChEMBL document CHEMBL1201862, “PubChem BioAssay data set” (2004)
Calls of active or inactive are those of the source.

Legend:
[1] = molecular target: T1, Low molecular weight phosphotyrosine protein phosphatase (Homo sapiens, UniProt P24666); format: functional; conditions: read-out: IC50_Mean;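 note: Dose-response confirmation assay measuring inhibition of LMPTP enzyme activity by fluorescence intensity read-out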
T1 sequence (P24666 whole entry): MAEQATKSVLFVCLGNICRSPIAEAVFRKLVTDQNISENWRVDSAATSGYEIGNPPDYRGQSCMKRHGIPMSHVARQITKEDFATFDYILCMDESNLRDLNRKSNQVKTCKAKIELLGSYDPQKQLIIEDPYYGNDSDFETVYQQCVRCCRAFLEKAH

[2] = molecular target: Protein Wnt-3a (Mus musculus, UniProt P27467); test: antagonism of Wnt3a pathway luciferase reporter – Wnt-LIGHT cells, luminescence, selectivity assay for Gli-SUFU antagonist project, dose response (AID 651570); format: functional; conditions: read-out: IC50_Mean;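 note: Wnt-LIGHT reporter cells stimulated with conditioned medium from Wnt3a-producing cells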
Protein Wnt-3a, sequence (P27467 whole entry): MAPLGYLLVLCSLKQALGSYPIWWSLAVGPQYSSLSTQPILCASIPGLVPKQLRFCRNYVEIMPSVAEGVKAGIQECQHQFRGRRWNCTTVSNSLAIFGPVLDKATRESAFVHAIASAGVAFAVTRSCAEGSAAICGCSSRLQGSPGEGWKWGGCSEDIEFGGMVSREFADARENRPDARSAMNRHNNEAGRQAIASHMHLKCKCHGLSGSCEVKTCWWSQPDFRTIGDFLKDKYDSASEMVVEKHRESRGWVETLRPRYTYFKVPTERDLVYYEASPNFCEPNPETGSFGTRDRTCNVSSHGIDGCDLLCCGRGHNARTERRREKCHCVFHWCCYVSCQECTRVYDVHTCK

[3] = DRD fibroblast viability loss – cell-based, non-viral oncogenic, luminescence, dose response (AID 1934); format: functional; conditions: Homo sapiens
[4] = system: BJ; test: growth inhibition of engineered Ras-driven BJ cells – cell-based, alamar blue fluorescence, cherrypicked samples, dose response (AID 2631); format: functional; conditions: Homo sapiens;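 note: confirmatory dose-response assay in RAS-dependent BJ fibroblasts engineered with TERT, LT and ST, with cytotoxicity read by fluorescence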
[5] = general cell-killing toxicity readout – plate reader, dry powder samples, cytotoxicity control for PAX8 inhibitor project, dose response (AID 743021); format: functional, cell-based
[6] = system: BJ; test: cells; format: functional, cell-based; conditions: Homo sapiens
[7] = system: BJ; test: BJ-TERT-LT-ST fibroblast viability loss – cell-based, RAS-independent, luminescence, dose response (AID 1935); format: functional; conditions: Homo sapiens;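 note: BJ fibroblasts immortalized with TERT plus LT and ST oncogenes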
[8] = molecular target: Paired box protein Pax-8 (Homo sapiens, UniProt Q06710); test: PAX8 transcriptional activity inhibition in RMG-I – RMG-I cells, luciferase, cherry-pick, dose response (AID 687027); format: functional, cell-based;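 note: luciferase reporter driven by Pax8 target thyroperoxidase promoter measured by SteadyGlo luminescence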
Paired box protein Pax-8, sequence (Q06710 whole entry): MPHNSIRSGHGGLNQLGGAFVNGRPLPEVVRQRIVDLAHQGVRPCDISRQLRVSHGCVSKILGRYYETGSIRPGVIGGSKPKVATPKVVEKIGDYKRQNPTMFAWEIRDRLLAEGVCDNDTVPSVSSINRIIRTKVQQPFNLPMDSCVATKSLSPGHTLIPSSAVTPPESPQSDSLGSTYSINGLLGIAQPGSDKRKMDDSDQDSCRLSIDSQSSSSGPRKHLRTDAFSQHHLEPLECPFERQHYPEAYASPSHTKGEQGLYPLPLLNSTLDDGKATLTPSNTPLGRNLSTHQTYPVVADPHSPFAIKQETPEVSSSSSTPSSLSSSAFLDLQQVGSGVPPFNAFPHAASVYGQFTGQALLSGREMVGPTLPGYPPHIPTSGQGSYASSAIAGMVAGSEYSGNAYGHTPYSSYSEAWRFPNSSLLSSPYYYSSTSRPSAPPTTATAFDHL

[9] = system: BJ; test: BJ-TERT fibroblast viability loss – cell-based, RAS-independent, luminescence, dose response (AID 1933); format: functional; conditions: Homo sapiens
[10] = NIH-3T3 fibroblast cytotoxicity, dose response, cytotoxicity control, cell-based, fluorescence, Alamar Blue, secondary assay (AID 2327); format: functional;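 note: NIH-3T3 mouse fibroblasts cultured with fluconazole at 8 µg/mL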
[11] = Trypanosoma cruzi growth suppression in host cells – NIH3T3 host cells, beta-gal luminescence, confirmation (AID 2044); format: functional, cell-based;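 note: intracellular parasites grown in NIH/3T3 mouse fibroblasts as host cells; luminescent beta-galactosidase reporter signal from transgenic T. cruzi replicating inside host cells; inhibitors lower the luminescence signal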
[12] = fluconazole-exposed Candida albicans growth modulators – fluorescence, retest, confirmation (AID 2467); format: functional, cell-based
[13] = cells
[14] = NIH3T3 cell viability loss – ATP luminescence, mouse fibroblasts, counter-screen, dose response (AID 2010); format: functional, cell-based;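 note: cells exposed to compound for about 90 hours before reading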
[15] = molecular target: T2, Microphthalmia-associated transcription factor (Homo sapiens, UniProt O75030); test: reducers of TRPM1 reporter luminescence, concentration series – cell-based, SK-MEL-5, cherry-picked, set 3, MITF inhibitor project, dose response (AID 493073); format: functional;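 note: SK-MEL-5 melanoma cells with luciferase driven by the MITF target TRPM1 promoter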
T2 sequence (O75030 whole entry): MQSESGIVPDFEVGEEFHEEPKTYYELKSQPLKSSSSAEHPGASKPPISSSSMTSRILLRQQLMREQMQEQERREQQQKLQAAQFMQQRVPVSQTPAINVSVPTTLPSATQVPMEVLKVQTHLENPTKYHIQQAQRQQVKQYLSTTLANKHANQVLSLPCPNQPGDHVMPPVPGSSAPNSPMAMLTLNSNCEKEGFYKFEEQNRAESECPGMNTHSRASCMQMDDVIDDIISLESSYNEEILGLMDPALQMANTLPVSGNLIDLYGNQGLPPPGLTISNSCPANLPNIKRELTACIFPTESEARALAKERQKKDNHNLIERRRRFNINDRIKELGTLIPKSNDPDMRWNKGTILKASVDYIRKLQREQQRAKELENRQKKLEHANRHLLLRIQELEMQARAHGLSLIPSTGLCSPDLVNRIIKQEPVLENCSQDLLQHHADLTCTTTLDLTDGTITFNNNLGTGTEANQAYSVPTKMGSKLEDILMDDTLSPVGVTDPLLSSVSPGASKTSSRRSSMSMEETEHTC

[16] = molecular target: ATP-dependent molecular chaperone HSP82 (Candida albicans (strain WO-1) (Yeast), UniProt C4YTQ8); test: steroid-induced GRE reporter decrease in yeast – S. cerevisiae, luminescence, Hsp90 inhibitor project, dose response (AID 2400); format: functional, cell-based;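 note: beta-galactosidase luminescence from glucocorticoid response element reporter as proxy for Hsp90 function; inhibitor potency where signal loss means Hsp90 inhibition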
ATP-dependent molecular chaperone HSP82, sequence (C4YTQ8 whole entry): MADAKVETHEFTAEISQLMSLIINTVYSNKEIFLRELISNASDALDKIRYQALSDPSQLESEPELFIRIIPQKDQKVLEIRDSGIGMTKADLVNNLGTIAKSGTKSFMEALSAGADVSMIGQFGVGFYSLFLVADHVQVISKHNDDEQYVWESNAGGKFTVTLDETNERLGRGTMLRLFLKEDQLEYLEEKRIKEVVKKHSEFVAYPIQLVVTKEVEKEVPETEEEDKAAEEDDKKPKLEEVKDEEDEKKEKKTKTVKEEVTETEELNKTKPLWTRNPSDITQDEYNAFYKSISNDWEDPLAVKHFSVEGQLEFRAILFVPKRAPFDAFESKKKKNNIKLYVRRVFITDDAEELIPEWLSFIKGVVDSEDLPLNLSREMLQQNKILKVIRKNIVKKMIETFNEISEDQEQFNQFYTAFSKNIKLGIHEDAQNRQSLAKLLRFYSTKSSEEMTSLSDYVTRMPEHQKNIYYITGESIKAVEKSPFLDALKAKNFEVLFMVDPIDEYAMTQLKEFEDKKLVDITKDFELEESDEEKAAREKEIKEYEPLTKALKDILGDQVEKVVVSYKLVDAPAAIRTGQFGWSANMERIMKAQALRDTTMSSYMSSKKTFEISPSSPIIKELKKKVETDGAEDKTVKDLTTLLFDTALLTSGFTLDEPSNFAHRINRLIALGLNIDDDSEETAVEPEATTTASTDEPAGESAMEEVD

[17] = molecular target: T3, Polyadenylate-binding protein 1 (Homo sapiens, UniProt P11940); test: MLLE binding blockers, Cy5 peptide tracer – biochemical, fluorescence polarization, Cy5-PAM2 peptide, secondary, miRNA deadenylation inhibitor project, dose response (AID 602260); format: functional; conditions: read-out: IC50_Mean
T3 sequence (P11940 whole entry): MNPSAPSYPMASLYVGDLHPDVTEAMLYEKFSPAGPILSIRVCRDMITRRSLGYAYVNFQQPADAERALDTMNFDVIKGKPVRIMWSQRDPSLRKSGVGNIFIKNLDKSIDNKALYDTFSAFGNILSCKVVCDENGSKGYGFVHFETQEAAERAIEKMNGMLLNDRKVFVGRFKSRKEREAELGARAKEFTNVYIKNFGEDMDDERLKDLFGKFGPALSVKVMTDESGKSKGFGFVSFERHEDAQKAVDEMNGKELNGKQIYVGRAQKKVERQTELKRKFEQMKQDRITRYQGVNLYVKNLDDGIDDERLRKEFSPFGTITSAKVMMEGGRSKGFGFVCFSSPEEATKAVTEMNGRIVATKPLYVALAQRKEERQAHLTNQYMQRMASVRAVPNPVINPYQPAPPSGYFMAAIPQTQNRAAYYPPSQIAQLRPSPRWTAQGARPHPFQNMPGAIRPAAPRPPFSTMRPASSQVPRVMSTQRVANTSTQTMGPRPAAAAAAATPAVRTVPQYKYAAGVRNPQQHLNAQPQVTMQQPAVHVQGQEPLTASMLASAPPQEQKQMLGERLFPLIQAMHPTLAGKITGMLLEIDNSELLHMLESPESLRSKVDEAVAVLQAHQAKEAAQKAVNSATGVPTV

[18] = molecular target: T4, Serine/threonine-protein phosphatase (Candida dubliniensis (strain CD36 / CBS 7987 / NCPF 3949 / NRRLY-17841) (Yeast), UniProt B9W6M3); test: blockers of CaCl2-induced CDRE-lacZ signaling – S. cerevisiae, luminescence, secondary, dose response (AID 2388); format: functional, cell-based;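 note: yeast reporter cells carrying a calcineurin-responsive lacZ construct stimulated with calcium chloride; luminescent beta-galactosidase reporter signal in whole cells rather than isolated phosphatase activity; potency for inhibition where a drop in reporter signal means calcineurin blockade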
T4 sequence (B9W6M3 whole entry): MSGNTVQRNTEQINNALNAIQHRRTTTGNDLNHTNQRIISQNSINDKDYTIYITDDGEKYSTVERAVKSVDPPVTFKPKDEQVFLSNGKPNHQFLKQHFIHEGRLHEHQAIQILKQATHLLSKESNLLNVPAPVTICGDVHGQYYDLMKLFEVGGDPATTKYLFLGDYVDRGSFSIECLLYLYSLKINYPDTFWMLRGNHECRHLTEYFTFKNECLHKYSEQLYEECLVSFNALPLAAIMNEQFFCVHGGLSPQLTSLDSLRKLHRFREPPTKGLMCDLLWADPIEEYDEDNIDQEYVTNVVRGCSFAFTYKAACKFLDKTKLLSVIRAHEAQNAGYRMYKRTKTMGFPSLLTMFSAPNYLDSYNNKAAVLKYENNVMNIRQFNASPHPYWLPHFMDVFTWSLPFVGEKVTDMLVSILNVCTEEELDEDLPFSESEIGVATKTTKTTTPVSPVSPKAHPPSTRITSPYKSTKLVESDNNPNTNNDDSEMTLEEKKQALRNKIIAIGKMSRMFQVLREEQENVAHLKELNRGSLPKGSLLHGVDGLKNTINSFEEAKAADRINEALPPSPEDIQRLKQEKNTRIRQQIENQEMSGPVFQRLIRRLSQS

[19] = molecular target: T3, Polyadenylate-binding protein 1; test: MLLE domain peptide-binding blockers, IC50 – biochemical, fluorescence polarization, FITC-PAM2 peptide, dose response (AID 602259); format: functional; conditions: read-out: IC50_Mean
[20] = molecular target: Cytochrome P450 2C19 (Homo sapiens, UniProt P33261); test: Cytochrome panel assay with activity outcomes. Panel member name: p450-cyp2c19 Compounds with AC50 equal or less than 10 uM are considered active; format: functional; conditions: read-out: AC50
Cytochrome P450 2C19, sequence (P33261 whole entry): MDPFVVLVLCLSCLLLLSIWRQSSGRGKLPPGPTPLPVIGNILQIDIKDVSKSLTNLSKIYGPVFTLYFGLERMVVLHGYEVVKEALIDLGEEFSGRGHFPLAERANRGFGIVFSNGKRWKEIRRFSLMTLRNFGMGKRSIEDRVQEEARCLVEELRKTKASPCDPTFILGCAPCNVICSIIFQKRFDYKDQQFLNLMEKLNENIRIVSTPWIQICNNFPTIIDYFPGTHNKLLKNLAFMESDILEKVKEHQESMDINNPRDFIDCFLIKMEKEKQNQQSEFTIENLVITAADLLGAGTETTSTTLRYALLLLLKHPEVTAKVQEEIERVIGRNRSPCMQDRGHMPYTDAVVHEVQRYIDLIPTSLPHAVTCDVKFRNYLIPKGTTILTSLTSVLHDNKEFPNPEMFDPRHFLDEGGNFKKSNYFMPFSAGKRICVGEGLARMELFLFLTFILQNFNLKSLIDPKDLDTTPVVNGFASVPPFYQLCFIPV

[21] = molecular target: Cytochrome P450 3A4 (Homo sapiens, UniProt P08684);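 note: CYP3A4 tested as one member of a cytochrome P450 panel screen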
Cytochrome P450 3A4, sequence (P08684 whole entry): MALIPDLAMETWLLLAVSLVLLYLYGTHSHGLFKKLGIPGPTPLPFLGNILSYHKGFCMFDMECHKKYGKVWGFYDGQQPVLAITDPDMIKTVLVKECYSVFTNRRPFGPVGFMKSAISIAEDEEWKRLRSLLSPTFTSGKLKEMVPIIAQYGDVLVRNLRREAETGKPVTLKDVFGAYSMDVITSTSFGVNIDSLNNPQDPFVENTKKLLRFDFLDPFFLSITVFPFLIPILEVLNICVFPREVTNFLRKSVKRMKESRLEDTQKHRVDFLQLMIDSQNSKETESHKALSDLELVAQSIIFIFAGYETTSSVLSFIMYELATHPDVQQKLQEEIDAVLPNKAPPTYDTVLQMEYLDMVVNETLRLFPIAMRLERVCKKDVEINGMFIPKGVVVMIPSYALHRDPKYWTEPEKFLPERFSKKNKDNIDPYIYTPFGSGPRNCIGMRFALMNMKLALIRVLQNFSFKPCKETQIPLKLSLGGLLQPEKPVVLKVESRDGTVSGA

[22] = molecular target: Cytochrome P450 2C9 (Homo sapiens, UniProt P11712)
[23] = system: INS1; test: INS-1E survival protection against cytokine death – cell-based, luminescence, retest, dose response (AID 449756); format: functional; conditions: Rattus norvegicus;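 note: cell death triggered by IL-1 beta plus TNF-alpha plus IFN-gamma mixture; protective hits raise ATP signal compared with cytokine alone wells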
[24] = molecular target: T5, High affinity choline transporter 1 (Homo sapiens, UniProt Q9GZV3); test: human choline transporter blockers, potency – cell-based, 5-point CRC, membrane potential dye, dose response (AID 504840); format: functional
T5 sequence (Q9GZV3 whole entry): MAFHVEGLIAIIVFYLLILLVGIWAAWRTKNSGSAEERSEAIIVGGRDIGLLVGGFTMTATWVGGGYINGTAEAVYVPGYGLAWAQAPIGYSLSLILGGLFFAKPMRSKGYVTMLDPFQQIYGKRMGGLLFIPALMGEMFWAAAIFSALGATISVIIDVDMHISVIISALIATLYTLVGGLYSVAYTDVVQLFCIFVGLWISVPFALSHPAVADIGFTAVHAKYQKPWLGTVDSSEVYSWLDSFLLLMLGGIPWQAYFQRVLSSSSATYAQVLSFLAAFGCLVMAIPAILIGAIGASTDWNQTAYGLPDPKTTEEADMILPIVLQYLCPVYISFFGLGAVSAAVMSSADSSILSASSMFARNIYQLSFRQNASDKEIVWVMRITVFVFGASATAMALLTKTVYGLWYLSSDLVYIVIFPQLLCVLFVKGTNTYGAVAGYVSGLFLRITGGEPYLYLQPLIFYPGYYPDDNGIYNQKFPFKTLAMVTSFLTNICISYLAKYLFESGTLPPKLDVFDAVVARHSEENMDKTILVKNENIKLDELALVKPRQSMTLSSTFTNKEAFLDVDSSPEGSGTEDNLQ

[25] = molecular target: Ras and Rab interactor 1/Tyrosine-protein kinase ABL1 (Homo sapiens, UniProt P00519+Q13671); format: functional;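 note: biochemical TR-FRET dose-response test measuring inhibition of binding between Rin1 and Abl proteins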
Ras and Rab interactor 1/Tyrosine-protein kinase ABL1, sequence (P00519 whole entry): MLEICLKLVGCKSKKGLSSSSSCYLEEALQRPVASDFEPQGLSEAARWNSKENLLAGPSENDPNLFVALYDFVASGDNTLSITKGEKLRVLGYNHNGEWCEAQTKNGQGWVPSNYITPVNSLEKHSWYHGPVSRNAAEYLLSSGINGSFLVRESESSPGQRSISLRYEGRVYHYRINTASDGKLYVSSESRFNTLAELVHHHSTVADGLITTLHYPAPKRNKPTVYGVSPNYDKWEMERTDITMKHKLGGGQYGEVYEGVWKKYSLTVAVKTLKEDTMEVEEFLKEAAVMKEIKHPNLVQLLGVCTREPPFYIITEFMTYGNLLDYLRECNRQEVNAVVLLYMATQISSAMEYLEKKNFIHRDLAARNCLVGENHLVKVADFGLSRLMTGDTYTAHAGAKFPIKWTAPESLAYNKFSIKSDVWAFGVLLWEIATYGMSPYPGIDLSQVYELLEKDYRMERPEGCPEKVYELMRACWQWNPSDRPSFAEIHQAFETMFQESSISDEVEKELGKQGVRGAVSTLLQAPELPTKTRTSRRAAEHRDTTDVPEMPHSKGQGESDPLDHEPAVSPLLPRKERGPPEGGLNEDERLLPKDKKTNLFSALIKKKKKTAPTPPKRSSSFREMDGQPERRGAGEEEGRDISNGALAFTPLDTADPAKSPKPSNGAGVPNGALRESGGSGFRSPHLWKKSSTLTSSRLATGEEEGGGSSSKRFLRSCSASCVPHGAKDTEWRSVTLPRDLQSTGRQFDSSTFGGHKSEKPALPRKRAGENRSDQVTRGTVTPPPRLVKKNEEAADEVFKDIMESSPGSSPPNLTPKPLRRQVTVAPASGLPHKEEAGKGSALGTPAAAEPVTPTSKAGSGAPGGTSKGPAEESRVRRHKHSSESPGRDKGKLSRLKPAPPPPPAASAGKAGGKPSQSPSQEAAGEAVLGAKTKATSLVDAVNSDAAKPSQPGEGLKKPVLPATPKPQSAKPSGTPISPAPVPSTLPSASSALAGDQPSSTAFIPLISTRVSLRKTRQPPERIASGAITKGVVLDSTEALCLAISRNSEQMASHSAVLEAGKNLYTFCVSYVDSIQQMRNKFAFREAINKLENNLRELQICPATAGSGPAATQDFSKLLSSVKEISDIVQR
Ras and Rab interactor 1/Tyrosine-protein kinase ABL1, sequence (Q13671 whole entry): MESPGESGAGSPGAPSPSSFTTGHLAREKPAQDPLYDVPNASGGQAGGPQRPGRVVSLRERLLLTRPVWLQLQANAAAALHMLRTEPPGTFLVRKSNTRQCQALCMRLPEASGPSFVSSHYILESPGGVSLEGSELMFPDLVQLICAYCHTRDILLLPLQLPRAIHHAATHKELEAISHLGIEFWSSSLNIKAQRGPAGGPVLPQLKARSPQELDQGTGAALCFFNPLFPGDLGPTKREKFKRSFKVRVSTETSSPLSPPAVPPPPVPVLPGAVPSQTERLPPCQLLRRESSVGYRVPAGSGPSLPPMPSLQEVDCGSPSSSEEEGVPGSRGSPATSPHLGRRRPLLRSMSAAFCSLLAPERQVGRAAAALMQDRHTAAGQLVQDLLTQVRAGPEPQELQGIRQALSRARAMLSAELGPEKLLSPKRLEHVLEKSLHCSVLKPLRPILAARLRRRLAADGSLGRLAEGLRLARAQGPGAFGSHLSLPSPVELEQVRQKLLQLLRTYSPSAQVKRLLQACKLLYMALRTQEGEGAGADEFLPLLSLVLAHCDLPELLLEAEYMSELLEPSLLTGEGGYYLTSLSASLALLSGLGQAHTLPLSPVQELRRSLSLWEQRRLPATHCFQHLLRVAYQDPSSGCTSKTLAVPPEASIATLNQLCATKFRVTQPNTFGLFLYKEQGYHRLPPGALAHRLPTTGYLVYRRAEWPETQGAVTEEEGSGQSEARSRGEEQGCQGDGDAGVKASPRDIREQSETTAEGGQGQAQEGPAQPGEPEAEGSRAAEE

With `CCCCn1nnnc1C(c1cc2ccccc2o1)N1CCN(c2cc(C)nc3ccccc23)CC1` (centres undefined) the IC50 [1] was 9.12 µM (active).

In the case of `Cc1ccc(S(=O)(=O)NCCC2=CCCCC2)cc1C(N)=O`, the IC50 [2] is reported as 10.8 µM (active).

For `CCCCCCCN(C(=O)CCl)c1cccc(C)c1`, the EC50 [3] was 2.48 µM (inconclusive), the EC50 [4] was 3.17 µM (active) and the AC50 [5] was 9.19 µM (active). The EC50 [6] was 3.93 µM (inconclusive), the EC50 [7] was > 75 µM (inconclusive) and the AC50 [8] was 5.91 µM (active). The EC50 [9] was 0.36 µM (inconclusive).

With `CCOc1ccc(-c2cc(C)[n+](CCO)c(-c3ccc(OCC)cc3)c2)cc1.[O-][Cl+3]([O-])([O-])[O-]` the IC50 [2] was 50 µM (inactive), the EC50 [10] was > 160 µM (inactive) and the EC50 [11] was < 0.1 µM (active). The EC50 [12] was > 38 µM (not active), the EC50 [13] was 0.079 µM (active) and the EC50 [14] was > 60 µM (inconclusive). For the same compound, the AC50 [15] was 11.1 µM (active).

In the case of `Cc1ccc(C)c(NC(S)=NNC(=O)c2csc(C(C)C)c2)c1`, the EC50 [10] is reported as > 150 µM (inactive), the EC50 [12] is reported as 0.907 µM (active) and the EC50 [16] is reported as > 160 µM (inactive). The IC50 [17] was > 66 µM (inactive), the EC50 [18] was > 180 µM (inactive) and the IC50 [19] was > 66 µM (inactive).

With `CCC(=O)O[C@H]1CC[C@H]2[C@@H]3CCC4=CC(=O)CC[C@]4(C)[C@H]3CC[C@]12C` [TESTOSTERONE PROPIONATE] the AC50 [20] was 10 µM (inconclusive), the AC50 [21] was “inconclusive” and the AC50 [22] was 12.6 µM (inconclusive).

In the case of `CCCOc1ccc(Br)cc1CSC(=N)N`, the AC50 [23] is reported as 6.45 µM (active), the IC50 [2] is reported as 9.88 µM (active) and the IC50 [24] is reported as 15.9 µM (active).

In the case of `CCOC(=O)CCCCC(=O)c1[nH]c(=O)[nH]c1CSCCO`, the IC50 [25] is reported as 0.695 µM (active).
